Here are results for two compounds from article PMC6886544.

SMILES strings stand for the structures.

Series [1] deals with ABL1-G250E (Homo sapiens, UniProt P00519, G250E). Briefly: SelectScreen kinase profiling, ABL1-G250E. It is filed as biochemical. As to conditions: mean ± SD of one measurement in duplicates. The procedure:
(§1) Kinase profiling of compound 17a at a concentration of 1 µM generated with the SelectScreen® Profiling Service from Life Technologies.
(§2) Figure S2. Kinase profiling of compound 17a, Illustration as waterfall plot. 9 Kinases harboring a Cysteine isostructural to Cys797 in EGFR are highlighted
(§3) Kinase % inhibition Kinase % inhibition […]
(§4) aValues are the mean ± SD of one measurement in duplicates; bKinases harboring a Cysteine isostructural to Cys797 […]
(§5) (1 picture or pasted object on this page, not shown here)

The target in series [2] is EGFR-wt (Homo sapiens, UniProt P00533). Description: SelectScreen kinase profiling, EGFR-wt. As to conditions: mean ± SD of one measurement in duplicates. It is filed as biochemical. How it is done: as §1, §2, §3, §4, §5
For series [3], the system named is EGFR and downstream cascade phosphorylation in H1975 cells. Description: Western blot analysis in H1975 cells. It is filed as cell-based. As to conditions: 1 h inhibitor then EGF stimulation. The procedure:
and incubated at 37 °C and 5% CO2. On day 2 cells were starved over night with media containing 0.5% FBS to be incubated on day 3 for 1 h with EGFR inhibitors following an additional 30 min of EGF stimulation at 50 ng/mL. The media was discarded and cells were washed once with DPBS
1x. Using 100 μL per well of lysis buffer, cells were then scraped off and lysed while rotating (Stuart Scientific, Staffordshire, UK) for 1 h at 4 °C. […] Supernatant was transferred into new tube and protein concentrations were determined with the Bio-Rad Protein Assay (Bio-Rad Laboratories, Hercules, CA). […]
captured and quantified using a FUJI LAS3000 system with Science Lab 2001 ImageGauge 4.0 software (Fujifilm Medial Systems, Stamford CT, USA). […]
glycerol, 1 mM TCEP, pH 8) on ice for 1 h. We analyzed the aliquots by ESI-MS using an Thermo Fisher Scientific Dionex UltiMate 3000 HPLC system connected to a Thermo Fisher Scientific Velos Pro (2d ion trap). Therefore, 5 μL of sample was injected and separated using a Vydac 214TP C4 5 μm column (150 mm x 2.1 mm) starting at 20% of solvent B for 5 minutes followed by a gradient up to 90% of solvent B over 14 min with a flow rate of 210 μL/min with 0.1% TFA in water as solvent A and 0.1% TFA in MeCN as solvent B. A mass range of 700 to 2000 m/z was scanned and raw data was deconvoluted and analyzed with MagTran software (Z.Q. Zhang, A.G. […]
A general note: Immunoblotting shows a protein as a band on a membrane.

The target in series [4] is ABL1-E255K (Homo sapiens, UniProt P00519, E255K). Briefly: SelectScreen kinase profiling, ABL1-E255K. It is filed as biochemical. The conditions noted are these: mean ± SD of one measurement in duplicates. The procedure: as §1, §2, §3, §4, §5
In series [5] the target is ABL1-wt (Homo sapiens, UniProt P00519). Briefly: SelectScreen kinase profiling, ABL1-wt. It is filed as biochemical. As to conditions: mean ± SD of one measurement in duplicates. How it is done:
as §1, §2, §3, §4, §5

Series [6] has as its target EGFR-T790M/L858R (Homo sapiens, UniProt P00533, L858R/T790M). Briefly: SelectScreen kinase profiling, EGFR-T790M/L858R. The class given is biochemical. The conditions noted are these: mean ± SD of one measurement in duplicates. The procedure:
as §1, §2, §3, §4, §5

The target in series [7] is ABL1-Y253F (Homo sapiens, UniProt P00519, Y253F). Description: SelectScreen kinase profiling, ABL1-Y253F. The class given is biochemical. As to conditions: mean ± SD of one measurement in duplicates. The procedure: as §1, §2, §3, §4, §5
The target in series [8] is 100 kinases. Briefly: Kinase selectivity profiling with 100 kinases (SelectScreen). The class given is biochemical. The conditions noted are these: screening concentration 1 μM. How it is done:
as §1, §2, §3, §4, §5

In series [9] the target is BTK (Homo sapiens, UniProt Q06187). Description: SelectScreen kinase profiling, BTK. The class given is biochemical. As to conditions: mean ± SD of one measurement in duplicates. How it is done:
as §1, §2, §3, §4, §5

Series [10] addresses BMX (Homo sapiens, UniProt P51813). Briefly: SelectScreen kinase profiling, BMX. It is filed as biochemical. As to conditions: mean ± SD of one measurement in duplicates. The procedure:
as §1, §2, §3, §4, §5

Series [11] deals with SRC (Homo sapiens, UniProt P12931). Briefly: SelectScreen kinase profiling, SRC. The conditions noted are these: mean ± SD of one measurement in duplicates. It is filed as biochemical. How it is done: as §1, §2, §3, §4, §5
Series [12] in a line: Microsomal stability (phase I), human. It is filed as in vitro ADME. As to conditions: human liver microsomes, up to 50 minutes, 37 °C. How it is done:
Microsomal stability (phase I) assay.
Metabolic stability under oxidative conditions was measured in liver microsomes from different
time up to 50 minutes (HLM) or 60 minutes (MLM) at 37 °C. Based on the compound half-life t1/2,
the in vitro intrinsic clearance CLint was calculated. […]

Series [13] in a line: Plasma protein binding, mouse. The conditions noted are these: equilibrium dialysis, 37 °C. The class given is in vitro ADME. How it is done:
Assessment of plasma protein binding was measured by equilibrium dialysis by incubating plasma
based determination of final compound concentrations. […]

For series [14], the target named is EGFR-L858R (Homo sapiens, UniProt P00533, L858R). Briefly: Kinetic characterization (Ki, kinact), EGFR-L858R.
Sequence of EGFR-L858R (P00533 25-1210 L858R): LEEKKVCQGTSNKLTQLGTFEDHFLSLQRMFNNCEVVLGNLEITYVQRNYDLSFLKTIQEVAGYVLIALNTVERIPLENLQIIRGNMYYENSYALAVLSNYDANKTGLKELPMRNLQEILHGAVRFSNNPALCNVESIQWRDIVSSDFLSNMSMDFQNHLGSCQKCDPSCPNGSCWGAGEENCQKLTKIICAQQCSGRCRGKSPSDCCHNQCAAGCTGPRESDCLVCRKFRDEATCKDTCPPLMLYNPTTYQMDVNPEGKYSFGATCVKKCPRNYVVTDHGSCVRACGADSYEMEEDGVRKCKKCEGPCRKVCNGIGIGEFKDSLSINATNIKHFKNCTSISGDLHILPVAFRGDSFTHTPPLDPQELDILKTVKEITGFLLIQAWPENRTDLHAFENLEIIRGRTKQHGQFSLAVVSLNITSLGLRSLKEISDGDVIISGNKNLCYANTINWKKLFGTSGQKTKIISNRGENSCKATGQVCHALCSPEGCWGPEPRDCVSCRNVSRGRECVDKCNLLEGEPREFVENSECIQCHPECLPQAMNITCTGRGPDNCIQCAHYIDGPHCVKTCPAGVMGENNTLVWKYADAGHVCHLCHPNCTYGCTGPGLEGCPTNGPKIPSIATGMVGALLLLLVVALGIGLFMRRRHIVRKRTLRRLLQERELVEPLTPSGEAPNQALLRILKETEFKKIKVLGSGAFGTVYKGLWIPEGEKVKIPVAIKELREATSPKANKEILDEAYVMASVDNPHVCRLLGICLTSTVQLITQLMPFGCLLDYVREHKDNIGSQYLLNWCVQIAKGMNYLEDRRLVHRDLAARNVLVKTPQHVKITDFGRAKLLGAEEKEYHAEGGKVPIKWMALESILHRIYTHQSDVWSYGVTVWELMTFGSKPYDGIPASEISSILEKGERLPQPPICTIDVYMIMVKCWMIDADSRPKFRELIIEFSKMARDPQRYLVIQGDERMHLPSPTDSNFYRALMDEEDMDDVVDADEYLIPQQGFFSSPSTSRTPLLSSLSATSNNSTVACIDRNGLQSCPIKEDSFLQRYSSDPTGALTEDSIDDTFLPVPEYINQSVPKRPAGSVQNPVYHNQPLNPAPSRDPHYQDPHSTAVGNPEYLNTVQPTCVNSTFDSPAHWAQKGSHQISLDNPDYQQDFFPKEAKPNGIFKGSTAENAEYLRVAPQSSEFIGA

Sequence of BMX (P51813 whole entry): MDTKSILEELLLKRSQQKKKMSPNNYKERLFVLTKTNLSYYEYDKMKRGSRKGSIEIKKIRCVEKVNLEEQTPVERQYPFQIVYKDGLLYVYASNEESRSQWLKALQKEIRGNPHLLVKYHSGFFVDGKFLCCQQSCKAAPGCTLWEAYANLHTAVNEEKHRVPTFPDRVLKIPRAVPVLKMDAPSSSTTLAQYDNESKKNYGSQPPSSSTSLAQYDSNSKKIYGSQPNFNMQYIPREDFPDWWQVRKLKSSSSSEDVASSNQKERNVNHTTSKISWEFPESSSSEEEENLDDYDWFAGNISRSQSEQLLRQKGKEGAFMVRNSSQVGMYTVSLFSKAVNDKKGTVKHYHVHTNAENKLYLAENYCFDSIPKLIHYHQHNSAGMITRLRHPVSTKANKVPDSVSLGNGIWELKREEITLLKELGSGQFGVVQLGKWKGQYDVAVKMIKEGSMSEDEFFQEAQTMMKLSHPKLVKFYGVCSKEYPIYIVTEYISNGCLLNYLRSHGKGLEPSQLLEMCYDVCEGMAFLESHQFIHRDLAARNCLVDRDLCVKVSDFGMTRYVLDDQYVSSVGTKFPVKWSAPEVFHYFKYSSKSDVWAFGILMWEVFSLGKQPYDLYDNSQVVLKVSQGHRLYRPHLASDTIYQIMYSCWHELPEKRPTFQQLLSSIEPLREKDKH
Sequence of EGFR-wt (P00533 25-1210): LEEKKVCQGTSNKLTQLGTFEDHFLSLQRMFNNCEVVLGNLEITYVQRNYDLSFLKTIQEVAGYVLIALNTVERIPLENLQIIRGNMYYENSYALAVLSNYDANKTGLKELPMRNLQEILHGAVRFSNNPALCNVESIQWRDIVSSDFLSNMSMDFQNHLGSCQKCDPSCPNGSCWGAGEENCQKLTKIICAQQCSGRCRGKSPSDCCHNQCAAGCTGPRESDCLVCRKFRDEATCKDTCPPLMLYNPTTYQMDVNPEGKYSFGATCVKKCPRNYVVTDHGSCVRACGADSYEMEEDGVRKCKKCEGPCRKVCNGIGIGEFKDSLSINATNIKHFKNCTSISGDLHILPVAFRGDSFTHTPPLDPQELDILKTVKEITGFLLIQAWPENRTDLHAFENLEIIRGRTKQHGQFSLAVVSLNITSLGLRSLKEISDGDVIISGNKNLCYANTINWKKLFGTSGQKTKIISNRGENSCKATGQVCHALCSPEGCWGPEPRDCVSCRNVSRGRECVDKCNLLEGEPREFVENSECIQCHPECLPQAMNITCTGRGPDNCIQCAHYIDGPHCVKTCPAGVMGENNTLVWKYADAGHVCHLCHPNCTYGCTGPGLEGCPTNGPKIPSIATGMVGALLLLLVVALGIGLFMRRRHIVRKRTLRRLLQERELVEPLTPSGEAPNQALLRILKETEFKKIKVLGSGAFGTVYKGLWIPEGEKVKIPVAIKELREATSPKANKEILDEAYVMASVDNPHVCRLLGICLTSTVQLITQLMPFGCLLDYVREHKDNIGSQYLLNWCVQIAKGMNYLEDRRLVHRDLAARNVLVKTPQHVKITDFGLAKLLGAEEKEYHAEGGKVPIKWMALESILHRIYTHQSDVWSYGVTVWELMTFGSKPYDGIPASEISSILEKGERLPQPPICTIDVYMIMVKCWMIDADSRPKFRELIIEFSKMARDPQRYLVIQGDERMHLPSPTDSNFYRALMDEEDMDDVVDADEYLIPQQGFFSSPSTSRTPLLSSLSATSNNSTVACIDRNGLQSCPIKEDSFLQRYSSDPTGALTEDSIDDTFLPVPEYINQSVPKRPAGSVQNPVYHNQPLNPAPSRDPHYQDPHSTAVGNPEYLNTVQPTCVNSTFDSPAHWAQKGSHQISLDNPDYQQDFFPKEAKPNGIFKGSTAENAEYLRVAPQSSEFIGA
Sequence of SRC (P12931 whole entry): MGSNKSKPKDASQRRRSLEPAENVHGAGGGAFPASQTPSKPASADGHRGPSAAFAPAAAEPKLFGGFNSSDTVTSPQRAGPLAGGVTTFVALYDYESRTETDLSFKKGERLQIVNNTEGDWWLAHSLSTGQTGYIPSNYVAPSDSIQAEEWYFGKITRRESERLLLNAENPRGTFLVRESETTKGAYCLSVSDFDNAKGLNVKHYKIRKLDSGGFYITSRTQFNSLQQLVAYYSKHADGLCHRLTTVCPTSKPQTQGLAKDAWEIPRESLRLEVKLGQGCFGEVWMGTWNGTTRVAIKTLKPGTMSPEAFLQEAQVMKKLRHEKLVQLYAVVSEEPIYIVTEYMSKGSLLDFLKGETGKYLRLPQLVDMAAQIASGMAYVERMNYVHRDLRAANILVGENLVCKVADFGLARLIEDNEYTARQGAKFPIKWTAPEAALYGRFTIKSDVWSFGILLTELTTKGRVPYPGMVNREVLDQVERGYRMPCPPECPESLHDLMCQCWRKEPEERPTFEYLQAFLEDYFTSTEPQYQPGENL
Sequence of EGFR-T790M/L858R (P00533 25-1210 T790M/L858R): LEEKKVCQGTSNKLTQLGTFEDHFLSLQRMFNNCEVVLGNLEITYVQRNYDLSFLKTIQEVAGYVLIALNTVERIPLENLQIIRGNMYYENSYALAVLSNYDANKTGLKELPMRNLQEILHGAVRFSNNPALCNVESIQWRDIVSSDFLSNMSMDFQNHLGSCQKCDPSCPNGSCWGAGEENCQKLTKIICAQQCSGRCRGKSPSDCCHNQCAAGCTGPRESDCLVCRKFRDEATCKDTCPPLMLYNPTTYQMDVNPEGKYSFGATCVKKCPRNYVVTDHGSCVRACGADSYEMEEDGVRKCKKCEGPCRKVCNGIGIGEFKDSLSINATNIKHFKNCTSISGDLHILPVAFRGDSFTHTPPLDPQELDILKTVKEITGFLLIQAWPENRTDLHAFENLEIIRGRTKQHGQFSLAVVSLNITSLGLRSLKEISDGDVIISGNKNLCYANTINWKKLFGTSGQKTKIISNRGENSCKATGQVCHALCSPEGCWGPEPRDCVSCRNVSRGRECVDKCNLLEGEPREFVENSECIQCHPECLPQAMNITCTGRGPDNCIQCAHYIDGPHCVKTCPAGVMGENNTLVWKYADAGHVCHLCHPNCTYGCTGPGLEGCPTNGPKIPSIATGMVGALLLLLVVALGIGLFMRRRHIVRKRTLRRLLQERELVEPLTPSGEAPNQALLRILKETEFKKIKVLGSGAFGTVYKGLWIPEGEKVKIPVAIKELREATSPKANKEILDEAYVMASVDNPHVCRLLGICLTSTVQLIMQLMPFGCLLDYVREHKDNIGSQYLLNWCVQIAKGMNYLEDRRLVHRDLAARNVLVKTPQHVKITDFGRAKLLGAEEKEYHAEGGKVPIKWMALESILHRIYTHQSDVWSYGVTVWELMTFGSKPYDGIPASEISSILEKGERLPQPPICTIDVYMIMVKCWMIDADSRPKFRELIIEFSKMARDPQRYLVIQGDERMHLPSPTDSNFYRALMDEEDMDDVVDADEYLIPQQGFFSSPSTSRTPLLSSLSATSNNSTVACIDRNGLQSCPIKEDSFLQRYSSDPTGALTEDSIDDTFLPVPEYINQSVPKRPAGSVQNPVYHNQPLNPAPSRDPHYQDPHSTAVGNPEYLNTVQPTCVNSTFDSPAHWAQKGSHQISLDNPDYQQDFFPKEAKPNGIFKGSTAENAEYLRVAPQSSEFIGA

For orientation: inhibition means the relative decrease from the control value, in per cent. Read a low inhibition as little suppression. For `C=CC(=O)Nc1cccc(-c2c(-c3ccc(CN4CCN(C)CC4)cc3)[nH]c3ncnc(OC)c23)c1` [Compound 17a], the inhibition at 1 µM in [1] is 96%; in [2], 97 ± 2%; in series [4] it was 86%; in series [5], 89%; in [6], 88 ± 1%; in series [7] it was 94%. Moreover, the inhibition at 1 µM in series [9] worked out at 96 ± 1%; in series [10], 89 ± 1%; in [11], 81 ± 1%. The “concentration at which phosphorylation of EGFR and downstream proteins was reduced/inhibited” value in [3] was “around 100 nM”. For the same compound, the “kinases with inhibitory activity of ≥70%” value in series [8] is 21 kinases and 8 mutant variants.
A word on the microsomal CLint: it is the capacity of the preparation to metabolise the compound, expressed as a volume cleared per time. One may read the fraction unbound as the share of the substance not bound to proteins or other matrix. By Ki is commonly meant the equilibrium dissociation constant of an inhibitor or competing ligand from its target. The low end stands for higher affinity, the high end for lower affinity. Usually kinact stands for the rate constant of inactivation at saturating inhibitor. The term kinact/KI denotes the second-order rate constant of inactivation. For `C=CC(=O)Nc1cccc(-c2c(-c3ccc(N4CCN(C)CC4)cc3)[nH]c3ncnc(OCC(C)C)c23)c1` [Compound 19h], the microsomal CLint at 3 µM in [12] was found to be 6.7 µL/min/mg. The compound further had a fraction unbound at 6 h, 5 µM in series [13] of 0.003. For the same compound, in series [14], the Ki worked out at 0.5 ± 0.1 nM, the kinact was 0.00467 s⁻¹ and the kinact/KI worked out at 8.78e+06 ± 650000 M⁻¹ s⁻¹.
